Laboratory results: US7872067B2, “Amphiphilic polymer compositions and their use” (priority 2004, dated 2011)
≈ marks a conversion by molar mass, not a printed value.

Assay: Solubility of active compounds in distilled water

Compound: Fc1ccc([C@]2(Cn3cncn3)O[C@H]2c2ccccc2Cl)cc1 (racemic) [epoxyconazole]
- Solubility in distilled water: 6.63 µg/mL (≈ 20.1 µM)
